Results: the Kinase Knowledgebase extract (Sharma et al. 2016)

Assays:
PIK3CD (Human) = PIK3CD (Human) (UniProt O00329); test: Assessment of PIK3CD Kinase Activity
PIK3CG (human) = PIK3CG (human) (UniProt P48736); test: Assessment of PIK3CG Kinase Activity
PIK3CA (human) = PIK3CA (human) (UniProt P42336); test: Assessment of PIK3CA Kinase Activity
Sequence of PIK3CA (human) (P42336 whole entry, looked up): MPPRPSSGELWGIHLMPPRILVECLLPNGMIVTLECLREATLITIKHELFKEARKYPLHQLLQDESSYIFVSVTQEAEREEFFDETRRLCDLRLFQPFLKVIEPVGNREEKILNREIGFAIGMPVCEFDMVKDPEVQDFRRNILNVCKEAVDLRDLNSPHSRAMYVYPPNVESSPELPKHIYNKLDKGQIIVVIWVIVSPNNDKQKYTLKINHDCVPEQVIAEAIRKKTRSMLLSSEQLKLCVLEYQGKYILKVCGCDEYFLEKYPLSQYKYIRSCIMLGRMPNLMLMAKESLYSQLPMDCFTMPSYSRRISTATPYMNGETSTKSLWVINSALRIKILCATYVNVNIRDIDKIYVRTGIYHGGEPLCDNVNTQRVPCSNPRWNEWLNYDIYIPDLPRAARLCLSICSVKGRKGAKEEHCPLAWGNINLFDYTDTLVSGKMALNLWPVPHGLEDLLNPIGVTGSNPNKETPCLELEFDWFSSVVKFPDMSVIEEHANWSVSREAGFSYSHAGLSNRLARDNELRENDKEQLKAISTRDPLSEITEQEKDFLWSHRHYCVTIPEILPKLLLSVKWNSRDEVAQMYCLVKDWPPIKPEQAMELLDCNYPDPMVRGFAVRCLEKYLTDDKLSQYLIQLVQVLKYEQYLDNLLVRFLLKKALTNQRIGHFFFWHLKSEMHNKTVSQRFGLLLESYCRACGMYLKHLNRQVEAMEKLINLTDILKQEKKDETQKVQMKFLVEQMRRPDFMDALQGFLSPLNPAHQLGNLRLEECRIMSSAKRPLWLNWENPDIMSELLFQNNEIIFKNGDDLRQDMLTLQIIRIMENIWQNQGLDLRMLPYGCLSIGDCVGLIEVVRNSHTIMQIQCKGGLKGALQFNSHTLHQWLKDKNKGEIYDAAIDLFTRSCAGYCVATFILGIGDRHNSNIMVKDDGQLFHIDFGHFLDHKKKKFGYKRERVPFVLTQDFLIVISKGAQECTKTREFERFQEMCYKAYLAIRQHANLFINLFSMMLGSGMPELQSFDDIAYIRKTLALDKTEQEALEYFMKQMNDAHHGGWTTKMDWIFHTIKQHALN

Sequence of PIK3CG (human) (P48736 whole entry, looked up): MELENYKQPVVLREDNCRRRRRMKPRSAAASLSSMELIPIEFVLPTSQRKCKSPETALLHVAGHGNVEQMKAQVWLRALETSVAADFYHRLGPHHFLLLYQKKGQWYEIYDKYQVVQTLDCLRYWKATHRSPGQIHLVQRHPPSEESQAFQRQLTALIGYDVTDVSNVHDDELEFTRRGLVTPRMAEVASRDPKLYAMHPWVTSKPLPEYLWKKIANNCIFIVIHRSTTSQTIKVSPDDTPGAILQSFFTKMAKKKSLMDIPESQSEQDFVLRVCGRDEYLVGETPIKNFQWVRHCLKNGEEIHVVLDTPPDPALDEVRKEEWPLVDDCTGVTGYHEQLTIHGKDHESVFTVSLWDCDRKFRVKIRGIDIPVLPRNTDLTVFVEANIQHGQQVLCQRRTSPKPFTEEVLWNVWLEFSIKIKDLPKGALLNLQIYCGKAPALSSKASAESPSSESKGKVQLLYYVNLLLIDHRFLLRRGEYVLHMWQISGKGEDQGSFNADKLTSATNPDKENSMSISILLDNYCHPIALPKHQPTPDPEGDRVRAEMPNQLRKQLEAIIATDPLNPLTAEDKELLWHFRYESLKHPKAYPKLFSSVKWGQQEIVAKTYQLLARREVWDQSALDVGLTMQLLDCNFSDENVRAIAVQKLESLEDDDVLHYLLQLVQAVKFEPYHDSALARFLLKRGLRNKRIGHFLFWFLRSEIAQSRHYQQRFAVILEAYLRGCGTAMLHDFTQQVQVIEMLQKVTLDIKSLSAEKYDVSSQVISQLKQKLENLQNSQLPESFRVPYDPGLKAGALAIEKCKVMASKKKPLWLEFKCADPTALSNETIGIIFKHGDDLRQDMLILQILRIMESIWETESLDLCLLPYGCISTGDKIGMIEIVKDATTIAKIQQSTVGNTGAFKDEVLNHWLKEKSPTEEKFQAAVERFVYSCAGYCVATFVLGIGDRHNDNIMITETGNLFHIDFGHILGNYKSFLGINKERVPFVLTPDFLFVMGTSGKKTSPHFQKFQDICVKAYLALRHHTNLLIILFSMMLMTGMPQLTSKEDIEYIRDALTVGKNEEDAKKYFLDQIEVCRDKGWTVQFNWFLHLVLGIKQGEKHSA
Sequence of PIK3CD (Human) (O00329 whole entry, looked up): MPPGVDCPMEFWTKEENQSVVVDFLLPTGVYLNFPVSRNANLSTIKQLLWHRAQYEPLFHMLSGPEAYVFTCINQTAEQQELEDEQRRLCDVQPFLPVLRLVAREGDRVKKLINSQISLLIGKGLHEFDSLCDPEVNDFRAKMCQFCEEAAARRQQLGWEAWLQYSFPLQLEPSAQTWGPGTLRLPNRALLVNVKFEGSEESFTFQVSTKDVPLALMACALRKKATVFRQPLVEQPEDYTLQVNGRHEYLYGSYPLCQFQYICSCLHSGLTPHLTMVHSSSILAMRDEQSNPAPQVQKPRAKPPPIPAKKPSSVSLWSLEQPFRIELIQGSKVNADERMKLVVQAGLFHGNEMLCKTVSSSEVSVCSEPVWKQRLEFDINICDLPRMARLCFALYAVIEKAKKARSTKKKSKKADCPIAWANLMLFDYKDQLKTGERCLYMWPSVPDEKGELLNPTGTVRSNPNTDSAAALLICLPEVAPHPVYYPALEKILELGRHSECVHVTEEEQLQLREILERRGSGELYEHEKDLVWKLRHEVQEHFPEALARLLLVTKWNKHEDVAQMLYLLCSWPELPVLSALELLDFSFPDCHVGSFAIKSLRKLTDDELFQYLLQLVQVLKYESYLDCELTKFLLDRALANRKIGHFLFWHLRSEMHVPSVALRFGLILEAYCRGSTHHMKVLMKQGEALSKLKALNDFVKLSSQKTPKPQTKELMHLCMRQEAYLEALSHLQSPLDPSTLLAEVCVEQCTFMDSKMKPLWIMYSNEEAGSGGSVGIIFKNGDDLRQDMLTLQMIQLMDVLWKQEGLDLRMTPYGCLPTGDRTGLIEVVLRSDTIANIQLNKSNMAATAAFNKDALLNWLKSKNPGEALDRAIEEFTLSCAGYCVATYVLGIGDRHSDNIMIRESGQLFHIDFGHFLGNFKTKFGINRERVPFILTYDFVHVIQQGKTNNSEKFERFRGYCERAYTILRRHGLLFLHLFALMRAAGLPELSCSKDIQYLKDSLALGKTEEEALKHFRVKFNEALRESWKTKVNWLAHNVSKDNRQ

| IC50 (PIK3CD (Human)) | IC50 (PIK3CG (human)) | IC50 (PIK3CA (human)) | SMILES |
| --- | --- | --- | --- |
| < 0.1 µM | < 0.1 µM | 0.1 to 1 µM | COc1cc(-c2cccc3cc([C@H](C)Nc4nc(N)ncc4-c4cnc(C)s4)n(-c4ccccc4)c(=O)c23)ccn1 |
| < 0.1 µM | < 0.1 µM |  | C[C@H](Nc1nc(N)ncc1C#N)c1cc2cccc(-c3ccnc(N)c3)c2c(=O)n1-c1ccccc1 |
| < 0.1 µM | < 0.1 µM |  | C[C@H](Nc1nc(N)ncc1C#N)c1nc2cccc(-c3cnn(C)c3)c2c(=O)n1-c1ccccc1 |
| < 0.1 µM | < 0.1 µM | 0.1 to 1 µM | COc1cncc(-c2cccc3cc([C@H](C)Nc4nc(N)ncc4C(N)=O)n(-c4ccccc4)c(=O)c23)c1 |
|  | 0.1 to 1 µM | > 10 µM | C[C@H](Nc1nc(N)ncc1C#N)c1cc2cccc(Cl)c2c(=O)n1-c1ccc(C#N)cc1 |
| < 0.1 µM | < 0.1 µM | < 0.1 µM | CC(C)Oc1cncc(-c2cccc3cc([C@H](C)Nc4nc(N)ncc4C#N)n(-c4ccccc4)c(=O)c23)c1 |
| < 0.1 µM | < 0.1 µM | 0.1 to 1 µM | COc1cc(-c2cccc3cc([C@H](C)Nc4nc(N)ncc4C#N)n(-c4ccccc4)c(=O)c23)cnc1C |
| < 0.1 µM | < 0.1 µM |  | C[C@H](Nc1nc(N)ncc1C#N)c1cc2cccc(-c3cnoc3)c2c(=O)n1-c1ccccc1 |
| < 0.1 µM | < 0.1 µM |  | C[C@H](Nc1nc(N)ncc1C#N)c1cc2cccc(-c3ccc(=O)n(CC4CC4)c3)c2c(=O)n1-c1ccccc1 |
| < 0.1 µM | < 0.1 µM |  | COc1cc(-c2cccc3nc([C@H](C)Nc4nc(N)ncc4C#N)n(-c4ccccc4)c(=O)c23)ccn1 |
| < 0.1 µM | < 0.1 µM | 0.1 to 1 µM | C[C@H](Nc1nc(N)ncc1C#N)c1cc2cccc(-c3cccc(N(C)C)c3)c2c(=O)n1-c1ccccc1 |
| < 0.1 µM | < 0.1 µM |  | Cc1ncc(-c2cccc3cc([C@H](C)Nc4nc(N)ncc4C#N)n(-c4ccccc4)c(=O)c23)s1 |
| < 0.1 µM | < 0.1 µM |  | C[C@H](Nc1nc(N)ncc1C#N)c1cc2ccccc2c(=O)n1-c1ccccc1 |
| < 0.1 µM | < 0.1 µM |  | COc1ccc(-c2cccc3cc([C@H](C)Nc4nc(N)ncc4C#N)n(-c4ccccc4)c(=O)c23)cc1 |
| < 0.1 µM | < 0.1 µM |  | C[C@H](Nc1nc(N)ncc1C#N)c1cc2cccc(Cl)c2c(=O)n1C1CCCCC1 |
| < 0.1 µM | < 0.1 µM |  | Cc1cc(-c2cccc3nc([C@H](C)Nc4nc(N)ncc4C#N)n(-c4ccccc4)c(=O)c23)ccn1 |
| < 0.1 µM | < 0.1 µM |  | C[C@H](Nc1nc(N)ncc1C#N)c1cc2cccc(-c3ccc(C#N)cc3)c2c(=O)n1-c1ccccc1 |
| < 0.1 µM | < 0.1 µM | 0.1 to 1 µM | C[C@H](Nc1nc(N)ncc1C#N)c1cc2cccc(-c3cccc(Cl)c3)c2c(=O)n1-c1ccccc1 |
| < 0.1 µM | < 0.1 µM | 0.1 to 1 µM | Cc1cc(-c2cccc3cc([C@H](C)Nc4nc(N)ncc4C#N)n(-c4ccccc4)c(=O)c23)ccn1 |
| < 0.1 µM | < 0.1 µM | > 10 µM | C[C@H](Nc1nc(N)ncc1C#N)c1cc2cccc(CC#N)c2c(=O)n1-c1ccccc1 |
| < 0.1 µM | < 0.1 µM | < 0.1 µM | C[C@H](Nc1nc(N)ncc1C#N)c1cc2cccc(-c3cncc(O)c3)c2c(=O)n1-c1ccccc1 |
| < 0.1 µM | < 0.1 µM | > 10 µM | Cc1cccc2cc([C@H](C)Nc3nc(N)ncc3C(F)(F)F)n(-c3cccc(F)c3)c(=O)c12 |

| IC50 (PIK3CD (Human)) | IC50 (PIK3CG (human)) | IC50 (PIK3CA (human)) | SMILES |
| --- | --- | --- | --- |
| < 0.1 µM | 0.1 to 1 µM | > 10 µM | C[C@H](Nc1nc(N)ncc1C#N)c1cc2cccc(Cl)c2c(=O)n1Cc1ccccc1 |
| < 0.1 µM | < 0.1 µM |  | CC(C)n1cc(-c2cccc3cc([C@H](C)Nc4nc(N)ncc4C#N)n(-c4ccccc4)c(=O)c23)ccc1=O |
| 0.1 to 1 µM | < 0.1 µM | > 10 µM | C[C@H](Nc1nc(N)ncc1-c1cnn(C)c1)c1cc2cccc(Cl)c2c(=O)n1-c1ccccc1 |
| < 0.1 µM | < 0.1 µM | 0.1 to 1 µM | COc1cncc(-c2cccc3nc([C@H](C)Nc4nc(N)ncc4C#N)n(-c4ccccc4)c(=O)c23)c1 |
| < 0.1 µM | < 0.1 µM | > 10 µM | C[C@H](Nc1nc(N)ncc1-c1cccs1)c1cc2cccc(Cl)c2c(=O)n1-c1ccccc1 |
| < 0.1 µM | < 0.1 µM |  | C[C@H](Nc1nc(N)ncc1C#N)c1cc2cccc(-c3ccc(S(N)(=O)=O)cc3)c2c(=O)n1-c1ccccc1 |
| < 0.1 µM | < 0.1 µM |  | C[C@H](Nc1nc(N)ncc1C#N)c1cc2cccc(-c3ccc(N(C)C)cc3)c2c(=O)n1-c1ccccc1 |
| 0.1 to 1 µM | < 0.1 µM | > 10 µM | C[C@H](Nc1nc(N)ncc1-c1ccccn1)c1cc2cccc(Cl)c2c(=O)n1-c1ccccc1 |
| 0.1 to 1 µM | 0.1 to 1 µM | > 10 µM | Cc1nc(-c2cnc(N)nc2N[C@@H](C)c2cc3cccc(Cl)c3c(=O)n2-c2ccccc2)sc1C |
| < 0.1 µM | < 0.1 µM |  | C[C@H](Nc1nc(N)ncc1C#N)c1cc2cccc(-c3ccc(=O)n(C)c3)c2c(=O)n1-c1ccccc1 |
| < 0.1 µM | < 0.1 µM | > 10 µM | C[C@H](Nc1nc(N)ncc1C#N)c1cc2cccc(Cl)c2c(=O)n1-c1cccc(F)c1F |
| < 0.1 µM | < 0.1 µM | 0.1 to 1 µM | C[C@H](Nc1nc(N)ncc1C#N)c1cc2cccc(-c3ccc(=O)n(C4CCCC4)c3)c2c(=O)n1-c1ccccc1 |
| < 0.1 µM | < 0.1 µM | 0.1 to 1 µM | COc1cc(-c2cccc3cc([C@H](C)Nc4nc(N)ncc4-c4cnc(OC)s4)n(-c4ccccc4)c(=O)c23)ccn1 |
| < 0.1 µM | < 0.1 µM |  | C[C@H](Nc1nc(N)ncc1C#N)c1cc2cccc(-c3cccc(NS(C)(=O)=O)c3)c2c(=O)n1-c1ccccc1 |
| 0.1 to 1 µM | < 0.1 µM | > 10 µM | COc1ccc(-n2c([C@H](C)Nc3nc(N)ncc3C#N)cc3cccc(Cl)c3c2=O)cc1 |
| < 0.1 µM | 0.1 to 1 µM |  | COc1ncc(-c2cccc3cc([C@H](C)Nc4nc(N)ncc4C#N)n(C4CC4)c(=O)c23)cn1 |
| < 0.1 µM | < 0.1 µM |  | C[C@H](Nc1nc(N)ncc1C#N)c1cc2cccc(-c3ccc4c(c3)OCO4)c2c(=O)n1-c1ccccc1 |
| < 0.1 µM | < 0.1 µM |  | C[C@H](Nc1nc(N)ncc1C#N)c1nc2cccc(-c3ccnnc3)c2c(=O)n1-c1ccccc1 |
| < 0.1 µM | < 0.1 µM | > 10 µM | C[C@H](Nc1nc(N)ncc1-c1ccsc1)c1cc2cccc(Cl)c2c(=O)n1-c1ccccc1 |
| 0.1 to 1 µM | 0.1 to 1 µM | > 10 µM | C[C@H](Nc1nc(N)ncc1C#N)c1cc2cccc(Cl)c2c(=O)n1CC(C)(C)C |
| < 0.1 µM | < 0.1 µM |  | COc1ccc(-c2cccc3cc([C@H](C)Nc4nc(N)ncc4C#N)n(-c4ccccc4)c(=O)c23)cn1 |
| < 0.1 µM | < 0.1 µM |  | C[C@H](Nc1nc(N)ncc1C#N)c1cc2cccc(-c3c[nH]nn3)c2c(=O)n1-c1ccccc1 |

| IC50 (PIK3CD (Human)) | IC50 (PIK3CG (human)) | IC50 (PIK3CA (human)) | SMILES |
| --- | --- | --- | --- |
| < 0.1 µM | < 0.1 µM | < 0.1 µM | COc1cc(-c2cccc3cc([C@H](C)Nc4nc(N)ncc4C#N)n(-c4ccccc4)c(=O)c23)cnc1OC |
| < 0.1 µM | < 0.1 µM |  | C[C@H](Nc1nc(N)ncc1C#N)c1cc2cccc(-c3ccc(Cl)cc3)c2c(=O)n1-c1ccccc1 |
| < 0.1 µM | < 0.1 µM | < 0.1 µM | COc1cccc(-c2cccc3cc([C@H](C)Nc4nc(N)ncc4C#N)n(-c4ccccc4)c(=O)c23)c1 |
| < 0.1 µM | < 0.1 µM |  | C[C@H](Nc1nc(N)ncc1C#N)c1cc2cccc(-c3ccnc(NS(C)(=O)=O)c3)c2c(=O)n1-c1ccccc1 |
| < 0.1 µM | < 0.1 µM | 0.1 to 1 µM | COc1cc(-c2cccc3cc([C@H](C)Nc4nc(N)ncc4C#N)n(-c4cccc(F)c4)c(=O)c23)ccn1 |
| < 0.1 µM | < 0.1 µM | 0.1 to 1 µM | COc1cncc(-c2cccc3cc([C@H](C)Nc4nc(N)ncc4C#N)n(-c4cccc(F)c4)c(=O)c23)c1 |
| < 0.1 µM | < 0.1 µM | > 10 µM | COc1cccc(-c2cccc3cc([C@H](C)Nc4nc(N)ncc4C#N)n(-c4ccccc4)c(=O)c23)n1 |
| < 0.1 µM | < 0.1 µM | 0.1 to 1 µM | Cc1cccc(-c2cccc3cc([C@H](C)Nc4nc(N)ncc4C#N)n(-c4ccccc4)c(=O)c23)c1 |
| < 0.1 µM | < 0.1 µM |  | C[C@H](Nc1nc(N)ncc1-c1nccs1)c1cc2cccc(Cl)c2c(=O)n1-c1ccccc1 |
| < 0.1 µM | < 0.1 µM |  | C[C@H](Nc1nc(N)ncc1C#N)c1cc2cccc(-c3cccc(S(N)(=O)=O)c3)c2c(=O)n1-c1ccccc1 |
| < 0.1 µM | < 0.1 µM |  | C[C@H](Nc1nc(N)ncc1C#N)c1cc2cccc(-c3cncc(F)c3)c2c(=O)n1-c1ccccc1 |
| < 0.1 µM | < 0.1 µM |  | CCn1cc(-c2cccc3cc([C@H](C)Nc4nc(N)ncc4C#N)n(-c4ccccc4)c(=O)c23)ccc1=O |
| < 0.1 µM | < 0.1 µM |  | C[C@H](Nc1nc(N)ncc1C#N)c1cc2cccc(C#CCCC(=O)N3CCCC3)c2c(=O)n1-c1ccccc1 |
| < 0.1 µM | < 0.1 µM |  | C[C@H](Nc1nc(N)ncc1C#N)c1cc2cccc(-c3cccc(C#N)c3)c2c(=O)n1-c1ccccc1 |
| < 0.1 µM | < 0.1 µM |  | Cc1cncc(-c2cccc3cc([C@H](C)Nc4nc(N)ncc4C#N)n(-c4ccccc4)c(=O)c23)c1 |
| < 0.1 µM | < 0.1 µM |  | C[C@H](Nc1nc(N)ncc1C#N)c1cc2cccc(-c3ccc(NS(C)(=O)=O)cc3)c2c(=O)n1-c1ccccc1 |
| < 0.1 µM | < 0.1 µM |  | C[C@H](Nc1nc(N)ncc1C#N)c1cc2cccc(-c3cncc(C(F)(F)F)c3)c2c(=O)n1-c1ccccc1 |
| < 0.1 µM | < 0.1 µM |  | COc1ncc(-c2cccc3cc([C@H](C)Nc4nc(N)ncc4C#N)n(-c4ccccc4)c(=O)c23)s1 |
| < 0.1 µM | < 0.1 µM |  | C[C@H](Nc1nc(N)ncc1C#N)c1cc2cccc(-c3cncc(S(C)(=O)=O)c3)c2c(=O)n1-c1ccccc1 |
| < 0.1 µM | < 0.1 µM |  | Cc1cc(-c2cccc3cc([C@H](C)Nc4nc(N)ncc4C#N)n(-c4cccc(F)c4)c(=O)c23)ccn1 |
